Patent US20230141101A1, “PDE4 INHIBITOR COMPOUND AND MEDICAL USE THEREOF” (Suzhou Longbotai Pharmaceuticals Co., Ltd., priority 2020, published 2023)

How the values were obtained:
Type in all cases: biochemical
Details in all cases: 20 nM
PDE4A1A = target: T1, PDE4A1A (Homo sapiens, UniProt P27815); assay: PDE4 inhibitory activity assay (FAM-cAMP enzymatic reaction), PDE4A1A
T1 construct: purchased BPS 60040
Procedure, shortened: (§1)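 Each isoform is incubated with test compound for 15 min at room temperature before FAM-cAMP substrate starts a 30-min reaction.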

PDE4D2 = PDE4D2 (Homo sapiens, UniProt Q08499); assay: PDE4 inhibitory activity assay (FAM-cAMP enzymatic reaction), PDE4D2
Procedure, shortened: as §1

PDE4B1 = target: T2, PDE4B1 (Homo sapiens, UniProt Q07343); assay: PDE4 inhibitory activity assay (FAM-cAMP enzymatic reaction), PDE4B1
T2 construct: purchased BPS 60041
Procedure, shortened: as §1

T1 sequence (P27815 1-647 isoform P27815-4): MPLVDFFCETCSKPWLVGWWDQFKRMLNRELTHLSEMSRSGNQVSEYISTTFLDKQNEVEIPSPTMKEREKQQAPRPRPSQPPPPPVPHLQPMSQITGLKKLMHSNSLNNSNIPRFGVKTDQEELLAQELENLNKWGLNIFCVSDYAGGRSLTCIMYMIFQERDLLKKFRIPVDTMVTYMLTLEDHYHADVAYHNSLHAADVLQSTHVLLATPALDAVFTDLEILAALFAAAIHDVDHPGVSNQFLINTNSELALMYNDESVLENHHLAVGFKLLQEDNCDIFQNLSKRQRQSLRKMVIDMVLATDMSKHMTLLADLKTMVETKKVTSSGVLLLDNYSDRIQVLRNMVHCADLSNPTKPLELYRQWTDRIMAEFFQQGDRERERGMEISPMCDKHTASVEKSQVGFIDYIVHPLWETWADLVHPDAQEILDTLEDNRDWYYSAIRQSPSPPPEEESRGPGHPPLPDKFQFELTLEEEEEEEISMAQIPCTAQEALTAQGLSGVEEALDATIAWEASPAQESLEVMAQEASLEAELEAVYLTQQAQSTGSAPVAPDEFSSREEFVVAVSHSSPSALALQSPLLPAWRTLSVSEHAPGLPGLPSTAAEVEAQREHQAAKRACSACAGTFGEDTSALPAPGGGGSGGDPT
Sequence of PDE4D2 (Q08499 303-809): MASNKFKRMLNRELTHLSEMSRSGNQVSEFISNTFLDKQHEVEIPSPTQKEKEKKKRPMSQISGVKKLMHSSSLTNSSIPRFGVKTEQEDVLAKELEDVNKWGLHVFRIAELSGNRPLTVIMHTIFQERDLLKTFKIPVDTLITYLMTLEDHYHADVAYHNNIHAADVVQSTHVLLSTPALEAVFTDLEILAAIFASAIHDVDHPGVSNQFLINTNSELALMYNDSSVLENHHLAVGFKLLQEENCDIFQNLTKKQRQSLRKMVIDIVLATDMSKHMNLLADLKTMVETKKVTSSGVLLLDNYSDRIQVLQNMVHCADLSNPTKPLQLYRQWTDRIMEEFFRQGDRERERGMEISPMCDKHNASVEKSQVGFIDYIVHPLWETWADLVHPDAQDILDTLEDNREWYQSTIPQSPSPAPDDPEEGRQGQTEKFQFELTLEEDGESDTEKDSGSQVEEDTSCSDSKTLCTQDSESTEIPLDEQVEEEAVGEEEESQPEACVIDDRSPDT
T2 sequence (Q07343 whole entry): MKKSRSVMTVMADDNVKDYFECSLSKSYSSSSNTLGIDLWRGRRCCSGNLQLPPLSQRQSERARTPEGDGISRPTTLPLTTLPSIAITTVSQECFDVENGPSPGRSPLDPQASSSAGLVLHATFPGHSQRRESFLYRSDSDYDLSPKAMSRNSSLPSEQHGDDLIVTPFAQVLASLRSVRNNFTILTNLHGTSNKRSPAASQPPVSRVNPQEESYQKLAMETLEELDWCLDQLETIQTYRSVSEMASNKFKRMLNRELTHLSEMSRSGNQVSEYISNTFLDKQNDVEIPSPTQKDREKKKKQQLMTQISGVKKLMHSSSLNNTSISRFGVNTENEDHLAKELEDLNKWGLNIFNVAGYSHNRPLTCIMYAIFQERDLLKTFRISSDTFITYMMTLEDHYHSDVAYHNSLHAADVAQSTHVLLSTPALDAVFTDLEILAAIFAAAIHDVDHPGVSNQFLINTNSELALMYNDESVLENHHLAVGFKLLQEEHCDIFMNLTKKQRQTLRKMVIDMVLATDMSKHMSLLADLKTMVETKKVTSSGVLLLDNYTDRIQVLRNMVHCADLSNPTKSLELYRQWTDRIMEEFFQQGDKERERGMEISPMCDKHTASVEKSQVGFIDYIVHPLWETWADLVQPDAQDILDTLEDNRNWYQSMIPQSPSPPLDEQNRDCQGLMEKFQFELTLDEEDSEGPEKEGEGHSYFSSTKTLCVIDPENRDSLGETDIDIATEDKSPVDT

Structure (SMILES) | PDE4 A1 inhibitory effect at 20 nM (PDE4A1A) | PDE4 D2 inhibitory effect at 20 nM (PDE4D2) | PDE4 B1 inhibitory effect at 20 nM (PDE4B1)
CCOc1nc([C@@H](CS(C)(=O)=O)n2c(=O)[nH]c3cc(-c4cc(F)ccc4F)cnc32)ccc1OC [Ex. 92, (S)-6-(2,5-difluorophenyl)-3-(1-(6-ethoxy-5-methoxypyridin-2-yl)-2-(methylsulfonyl)ethyl)-1H-imidazo[4,5-b]pyridin-2(3H)-one] | + | + | +
CCOc1nc([C@@H](CS(C)(=O)=O)n2c(=O)[nH]c3cc(-c4cc(F)ccc4OC)cnc32)ccc1OC [Ex. 117, (S)-6-(5-fluoro-2-methoxyphenyl)-3-(1-(6-ethoxy-5-methoxypyridin-2-yl)-2-(methylsulfonyl)ethyl)-1H-imidazo[4,5-b]pyridin-2(3H)-one] | + | + | +
CCOc1nc([C@H](CS(C)(=O)=O)n2c(=O)[nH]c3c(C)c(-c4cccc(F)c4F)cnc32)ccc1OC [Ex. 26, (R)-6-(2,3-difluorophenyl)-3-(1-(6-ethoxy-5-methoxypyridin-2-yl)-2-(methylsulfonyl)ethyl)-7-methyl-1H-imidazo[4,5-b]pyridin-2(3H)-one] | − | − | −
CCOc1nc([C@@H](CS(C)(=O)=O)n2c(=O)n(CCOC)c3c(C)c(-c4ccccn4)cnc32)ccc1OC [Ex. 20, (S)-3-(1-(6-ethoxy-5-methoxypyridin-2-yl)-2-(methylsulfonyl)ethyl)-1-(2-methoxyethyl)-7-methyl-6-(pyridin-2-yl)-1H-imidazo[4,5-b]pyridin-2(3H)-one] | + | + | +
CCOc1nc([C@@H](CS(C)(=O)=O)n2c(=O)[nH]c3cc(-c4ccccc4)ccc32)ccc1OC [Ex. 130, (S)-1-(1-(6-ethoxy-5-methoxypyridin-2-yl)-2-(methylsulfonyl)ethyl)-5-phenyl-1H-benzo[d]imidazol-2(3H)-one] | + | + | +
CCOc1nc([C@@H](CS(C)(=O)=O)n2c(=O)[nH]c3c(C)c(-c4ccccc4F)cnc32)ccc1OC(F)F [Ex. 60, (S)-3-(1-(5-(difluoromethoxy)-6-ethoxypyridin-2-yl)-2-(methylsulfonyl)ethyl)-6-(2-fluorophenyl)-7-methyl-1H-imidazo[4,5-b]pyridin-2(3H)-one] | + | + | +
CCOc1nc([C@@H](CS(C)(=O)=O)n2c(=O)n(CCOC)c3cc(-c4ccccn4)cnc32)ccc1OC [Ex. 125, (S)-3-(1-(6-ethoxy-5-methoxypyridin-2-yl)-2-(methylsulfonyl)ethyl)-1-(2-methoxyethyl)-6-(pyridin-2-yl)-1H-imidazo[4,5-b]pyridin-2(3H)-one] | + | + | +
CCOc1nc([C@@H](CS(C)(=O)=O)n2c(=O)n(C)c3c(C)c(-c4ccccc4)cnc32)ccc1OC(F)F [Ex. 66, (S)-3-(1-(5-(difluoromethoxy)-6-ethoxypyridin-2-yl)-2-(methylsulfonyl)ethyl)-1,7-dimethyl-6-phenyl-1H-imidazo[4,5-b]pyridin-2(3H)-one] | + | + | +
CCOc1nc([C@@H](CS(C)(=O)=O)n2c(=O)n(C)c3cc(-c4ccccc4CC)ccc32)ccc1OC [Ex. 151, (S)-1-(1-(6-ethoxy-5-methoxypyridin-2-yl)-2-(methylsulfonyl)ethyl)-5-(2-ethylphenyl)-3-methyl-1H-benzo[d]imidazol-2(3H)-one] | + | + | +
CCOc1nc([C@@H](CS(C)(=O)=O)n2c(=O)[nH]c3cc(-c4ccccc4OC)ccc32)ccc1OC [Ex. 143, (S)-1-(1-(6-ethoxy-5-methoxypyridin-2-yl)-2-(methylsulfonyl)ethyl)-5-(2-methoxyphenyl)-1H-benzo[d]imidazol-2(3H)-one] | + | + | +

Results, then the compound that gave them:

PDE4 A1 inhibitory effect at 20 nM (PDE4A1A) | PDE4 D2 inhibitory effect at 20 nM (PDE4D2) | PDE4 B1 inhibitory effect at 20 nM (PDE4B1) | Structure (SMILES)
+ | + | + | CCOc1nc([C@@H](CS(C)(=O)=O)n2c(=O)n(C)c3cc(-c4c(F)cccc4F)ccc32)ccc1OC [Ex. 155, (S)-5-(2,6-difluorophenyl)-1-(1-(6-ethoxy-5-methoxypyridin-2-yl)-2-(methylsulfonyl)ethyl)-3-methyl-1H-benzo[d]imidazol-2(3H)-one]
+ | + | + | CCOc1nc([C@@H](CS(C)(=O)=O)n2c(=O)n(C3CC3)c3cc(C(F)(F)F)ccc32)ccc1OC [Ex. 211, (S)-3-cyclopropyl-1-(1-(6-ethoxy-5-methoxypyridin-2-yl)-2-(methylsulfonyl)ethyl)-5-(trifluoromethyl)-1H-benzo[d]imidazol-2(3H)-one]
+ | + | + | CCOc1nc([C@@H](CS(C)(=O)=O)N2Cc3cccc(NC(=O)C4CC4)c3C2=O)ccc1OC [Ex. 217, (S)—N-(2-(1-(6-ethoxy-5-methoxypyridin-2-yl)-2-(methylsulfonyl)ethyl)-3-oxoisoindolin-4-yl)cyclopropanecarboxamide]
+ | + | + | CCOc1nc(C(CS(C)(=O)=O)N2C(=O)c3csc(NC(C)=O)c3C2=O)ccc1OC (stereo not drawn) [Ex. 224, N-(5-(1-(6-ethoxy-5-methoxypyridin-2-yl)-2-(methylsulfonyl)ethyl)-4,6-dioxo-5,6-dihydro-4H-thieno[3,4-c]pyrrol-1-yl)acetamide]
+ | + | + | CCOc1nc([C@@H](CS(C)(=O)=O)n2c(=O)n(C)c3cc(-c4cccc(C)c4C)ccc32)ccc1OC [Ex. 167, (S)-5-(2,3-dimethylphenyl)-1-(1-(6-ethoxy-5-methoxypyridin-2-yl)-2-(methylsulfonyl)ethyl)-3-methyl-1H-benzo[d]imidazol-2(3H)-one]
+ | + | + | CCOc1nc([C@@H](CS(C)(=O)=O)n2c(=O)[nH]c3cc(-c4cccc(F)c4C)ccc32)ccc1OC [Ex. 173, (S)-5-(3-fluoro-2-methylphenyl)-1-(1-(6-ethoxy-5-methoxypyridin-2-yl)-2-(methylsulfonyl)ethyl)-1H-benzo[d]imidazol-2(3H)-one]
+ | + | + | CCOc1nc([C@@H](CS(C)(=O)=O)n2c(=O)n(C)c3cc(-c4cc(C)ccc4F)ccc32)ccc1OC [Ex. 176, (S)-5-(2-fluoro-5-methylphenyl)-1-(1-(6-ethoxy-5-methoxypyridin-2-yl)-2-(methylsulfonyl)ethyl)-3-methyl-1H-benzo[d]imidazol-2(3H)-one]
